Source: article PMC6591251, “Discovery of potent necroptosis inhibitors targeting RIPK1 kinase activity for the treatment of inflammatory disorder and cancer metastasis” (Cell Death & Disease, 2019)
Entries after “also recorded” stand apart in the source; their conditions may differ. Read-outs that look alike come from different tables or passages of the source.

How the values were obtained:
[1] = system: mouse embryonic fibroblasts (MEFs); assay: TNF-induced necroptosis (T/S/Z), cell viability by ATP levels; format: cell-based; conditions: Fibroblast, 24 h, MEF, T/S/Z 24 h
[2] = Pharmacokinetic profile in mice; format: in vivo; conditions: ICR, mouse, plasma; for AUC(0-t): read-out: AUC0-24
Protocol: Encouraged by our overall satisfactory in vitro potency and selectivity data for PK68, we decided to assess its in vivo pharmacokinetic profile.
(§1) Data represent mean value ± standard deviation. b Plasma pharmacokinetic parameters of PO and IV. c, d C57BL/6 mice (n = 5) were treated with the indicated daily oral gavage dosing of PK68 for successive 14 days. Body weight (c) and hematoxylin-eosin (H&E) staining (d) of mice were analyzed. Control mice received an equal amount of vehicle. Magnification: ×40. Data represent mean value ± standard deviation TEXT PRINTED IN THE PICTURE: (b) no label printed: Tmax (hr): 0.5 (PO (Gavage)); Cmax (ng/mL): 2423 (PO (Gavage)); AUC0-24 (ng/mL*hr): 4821 (PO (Gavage)); AUC0-24 (ng/mL*hr): 1588 (IV (Bolus)); AUCINF (ng/mL*hr): 4897 (PO (Gavage)); AUCINF (ng/mL*hr): 1590 (IV (Bolus)); t1/2 (hr): 1.3 (PO (Gavage)); t1/2 (hr): 1.0 (IV (Bolus)); MRT (hr): 1.8 (PO (Gavage)); MRT (hr): 0.8 (IV (Bolus)); CL (mL/hr/kg): 1258 (IV (Bolus)); CL (mL/min/kg): 21 (IV (Bolus)); Vss (mL/kg): 1009 (IV (Bolus)); Vss (L/kg): 1.0 (IV (Bolus)); F(%): 61 (PO (Gavage)) DOUBTS OF THE COPYIST ABOUT THIS PICTURE: Panel b prints no substance label with the PK table. The name PK68 is printed only in panels c and d, so the label is left empty.
(§2) Judging by the PK time curve, the observed plasma levels of PK68 were above its EC50 over a period of 8 h. […] These doses were meant to determine the preliminary toxicity effects of PK68 (Fig. 6c). […] We further performed histology of various tissues from mice that had received 14-day treatment of PK68.

[3] = 14-day preliminary toxicity, daily oral gavage; format: in vivo, C57BL/6 mice
Protocol: as §1, §2

TRKA = TRKA (Homo sapiens, UniProt P04629); assay: RBC kinase panel; format: biochemical; design: purchased Reaction Biology Corporation
TRKA, sequence (P04629 33-796): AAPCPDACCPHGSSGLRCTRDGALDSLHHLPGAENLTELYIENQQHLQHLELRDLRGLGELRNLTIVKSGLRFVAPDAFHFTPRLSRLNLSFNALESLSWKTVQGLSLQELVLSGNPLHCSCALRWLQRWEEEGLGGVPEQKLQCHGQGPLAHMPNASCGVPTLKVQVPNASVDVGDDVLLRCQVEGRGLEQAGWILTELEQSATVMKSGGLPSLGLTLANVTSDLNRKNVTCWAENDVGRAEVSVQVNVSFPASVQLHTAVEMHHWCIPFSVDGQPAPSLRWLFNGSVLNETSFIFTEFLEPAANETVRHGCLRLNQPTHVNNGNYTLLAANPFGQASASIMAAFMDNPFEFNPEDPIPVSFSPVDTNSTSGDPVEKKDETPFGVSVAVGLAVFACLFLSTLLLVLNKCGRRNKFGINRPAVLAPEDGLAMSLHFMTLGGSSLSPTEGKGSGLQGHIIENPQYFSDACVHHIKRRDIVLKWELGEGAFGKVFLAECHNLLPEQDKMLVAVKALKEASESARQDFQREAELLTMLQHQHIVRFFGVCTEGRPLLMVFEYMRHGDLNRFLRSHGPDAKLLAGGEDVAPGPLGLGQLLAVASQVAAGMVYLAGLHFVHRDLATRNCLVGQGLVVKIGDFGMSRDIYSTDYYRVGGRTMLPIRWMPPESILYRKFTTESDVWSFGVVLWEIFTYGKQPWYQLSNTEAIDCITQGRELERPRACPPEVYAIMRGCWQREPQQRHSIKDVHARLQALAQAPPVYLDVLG
Protocol: (§3) PK68 was tested at 1 μM in duplicate against a panel of 369 human kinases at Reaction Biology Corporation. Results are viewed in the human kinome phylogenetic tree.
(§4) ^a Compound PK68 was tested at 1 μM in duplicate against 369 kinases using the RBC kinase panel service of Reaction Biology Corporation. All the ATP concentrations used were 10 μM. […] Full protocol details are available at http://www.reactionbiology.com.

TNIK = TNIK (Homo sapiens, UniProt Q9UKE5); assay: RBC kinase panel; format: biochemical; design: purchased Reaction Biology Corporation
TNIK, sequence (Q9UKE5 whole entry): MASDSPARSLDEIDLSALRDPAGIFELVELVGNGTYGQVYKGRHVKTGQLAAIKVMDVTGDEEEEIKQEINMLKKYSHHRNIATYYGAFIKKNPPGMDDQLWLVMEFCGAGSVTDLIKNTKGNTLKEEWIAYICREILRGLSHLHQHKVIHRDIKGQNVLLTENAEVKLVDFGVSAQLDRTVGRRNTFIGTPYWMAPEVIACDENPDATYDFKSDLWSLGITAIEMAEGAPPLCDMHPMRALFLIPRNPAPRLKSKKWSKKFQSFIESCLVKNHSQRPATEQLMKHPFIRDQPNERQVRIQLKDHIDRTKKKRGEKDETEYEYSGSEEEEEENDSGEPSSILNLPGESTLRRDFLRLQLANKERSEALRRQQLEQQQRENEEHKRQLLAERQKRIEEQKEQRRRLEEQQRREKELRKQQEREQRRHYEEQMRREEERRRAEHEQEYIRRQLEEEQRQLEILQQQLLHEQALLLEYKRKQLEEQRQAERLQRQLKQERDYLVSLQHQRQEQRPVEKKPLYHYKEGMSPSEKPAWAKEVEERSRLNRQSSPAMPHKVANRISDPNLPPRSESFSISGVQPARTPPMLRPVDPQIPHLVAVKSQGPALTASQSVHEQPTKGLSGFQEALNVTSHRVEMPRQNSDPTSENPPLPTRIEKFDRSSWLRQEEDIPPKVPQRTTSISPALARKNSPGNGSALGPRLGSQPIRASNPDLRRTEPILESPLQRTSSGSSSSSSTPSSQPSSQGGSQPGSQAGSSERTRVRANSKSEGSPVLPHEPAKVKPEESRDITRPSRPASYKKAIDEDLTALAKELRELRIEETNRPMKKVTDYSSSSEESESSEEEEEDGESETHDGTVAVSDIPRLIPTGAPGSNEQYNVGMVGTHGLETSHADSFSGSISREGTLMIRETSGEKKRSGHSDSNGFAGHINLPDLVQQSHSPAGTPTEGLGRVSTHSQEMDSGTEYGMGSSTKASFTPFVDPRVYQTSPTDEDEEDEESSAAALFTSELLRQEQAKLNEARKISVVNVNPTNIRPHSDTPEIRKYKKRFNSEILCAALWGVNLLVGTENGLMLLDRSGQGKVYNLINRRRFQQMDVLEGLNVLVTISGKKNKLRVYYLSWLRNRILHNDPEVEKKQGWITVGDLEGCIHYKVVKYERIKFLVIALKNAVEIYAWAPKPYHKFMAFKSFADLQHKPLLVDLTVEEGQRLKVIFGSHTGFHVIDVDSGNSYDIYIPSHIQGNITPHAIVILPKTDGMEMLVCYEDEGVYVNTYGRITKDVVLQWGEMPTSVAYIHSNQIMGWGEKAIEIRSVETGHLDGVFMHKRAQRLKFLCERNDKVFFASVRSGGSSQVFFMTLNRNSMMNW
Protocol: as §3, §4

B16-F10 cells = assay: Lung metastasis model of melanoma cells; format: in vivo, C57BL/6 mice; conditions: 5 mg/kg ip pre-treatment; 14 days
Protocol: Studies have shown that RIPK1 kinase activity is involved in the promotion of tumor metastasis through death receptor 6-dependent necroptosis of endothelial cells[22] or VEGF-dependent activation of vascular permeability. We thus evaluated the therapeutic effect of PK68 on lung metastasis of mouse melanoma B16-F10 cells in vivo. […] After 2 weeks, the metastasis of B16-F10 cells was measured by histological analysis and assessed as the number of metastasis nodules in the lung. […] Two weeks after intravenous injection of RFP-LL/2 cells, RFP^+ LL/2 cells were isolated from the tumor tissues by flow cytometer sorting and no signal of phosphorylated RIPK1 was detected in these tumors cells (Supplementary Fig. 22). […] Further, we evaluated the effect of PK68 on the tumor cell transmigration across the cultured endothelium. […]
C57BL/6 mice bearing B16-F10 cells (a, b) or RFP-labeled LL/2 cells (c, d) were treated with vehicle, PK68 (5 mg/kg) or Nec-1s (5 mg/kg) as described in the Materials and methods. a, b Tumor metastasis of B16-F10 was measured by the numbers of metastasis nodules and histological analysis. […] The numbers of metastasis nodules on lung surfaces (b) in the metastasis model of B16-F10 were counted with the microscope. c, d Tumor metastasis of RFP-labeled LL/2 was calculated by RFP […] intensity. […]

[4] = 5 and 25 mg/kg, daily oral gavage, 14 days

SMILES: CC(=O)Nc1nc2ccc(-c3cnc(Cl)c(NC(=O)Cc4ccccc4)c3)cc2s1 [PK6, N-(5-(2-acetamidobenzo[d]thiazol-6-yl)-2-chloropyridin-3-yl)-2-phenylacetamide]
- EC50 [1]: ~950 nM

SMILES: CC(=O)Nc1nc2ccc(-c3cnc(C)c(NC(=O)OC4CCCCC4)c3)cc2s1 [PK68, cyclohexyl (5-(2-acetamidobenzo[d]thiazol-6-yl)-2-methylpyridin-3-yl)carbamate]
- clearance ([2]; iv, 2 mg/kg, IV (Bolus)): 21 mL/min/kg
- Vd ([2]; iv, 2 mg/kg, IV (Bolus), read-out: Vss): 1 L/kg
- AUC(0-inf) ([2]; 2 mg/kg, IV (Bolus)): 1590 ng·h/mL
- MRT ([2]; 2 mg/kg, IV (Bolus)): 0.8 h
- half-life ([2]; 2 mg/kg, IV (Bolus)): 1 h
- AUC(0-t) ([2]; 2 mg/kg, IV (Bolus)): 1590 ng·h/mL
- AUC(0-inf) ([2]; 10 mg/kg, PO (Gavage)): 4900 ng·h/mL
- MRT ([2]; 10 mg/kg, PO (Gavage)): 1.8 h
- half-life ([2]; 10 mg/kg, PO (Gavage)): 1.3 h
- AUC(0-t) ([2]; 10 mg/kg, PO (Gavage)): 4820 ng·h/mL
- bioavailability ([2]; 10 mg/kg, PO (Gavage), read-out: F(%) oral bioavailability): 61%
- Cmax ([2]; po, orally 10 mg/kg, read-out: plasma concentration translated from Cmax): ~4 µM
- Tmax ([2]; PO (Gavage), 10 mg/kg): 0.5 h
- Cmax ([2]; PO (Gavage), 10 mg/kg, read-out: Cmax): 2420 ng/mL
- body weight and behavior [3, 4]: normal body weight and behavior
- tolerability [3, 4]: well tolerated
- toxicity in mice ([3]; 14-day course, 25 mg/kg): no obvious toxicity; also recorded: no detectable toxicity
- histology of lung, liver, and heart ([3]; 14-day treatment): normal morphology
- Activity% (TRKA; 1 μM, ATP 10 μM, Data1, Data2): 28.42%
- activity at 1 µM (TRKA; 1 μM, ATP 10 μM, Data1, Data2): 29.1%
- inhibition at 1 µM (TRKA; at 1000 nM): > 50%
- Activity% (TNIK; 1 μM, ATP 10 μM, Data1, Data2): 38.77%
- activity at 1 µM (TNIK; 1 μM, ATP 10 μM, Data1, Data2): 39%
- inhibition at 1 µM (TNIK; at 1000 nM): > 50%
- number of pulmonary metastasis nodules (B16-F10 cells): significantly reduced
